These are literature values, as cited in patent US20220160704A2, “COMPOSITIONS FOR OPIATE AND OPIOID PREVENTION AND REVERSAL, AND METHODS OF THEIR USE” (Torralva Medical Therapeutics LLC, priority 2018, published 2022).

Where a name gives a salt, the structure may show the parent alone. Read-outs that look alike come from different tables or passages of the source. A value given as a limit tells only on which side of the number the result lay.

The conditions of data set [1]: cited from earlier work.
For data set [2] the following is noted: cited from earlier work. This is another data set of the same source.
The conditions of data set [3]: cited from earlier work. This is another data set of the same source.
The conditions of data set [4]: cited from earlier work. This is another data set of the same source.
The conditions of data set [5]: cited from earlier work. This is another data set of the same source.
The conditions of data set [6]: pH 7.4; cited from earlier work.
The conditions of data set [7]: in vivo; cited from earlier work.
For data set [8] the following is noted: 25° C.; cited from earlier work.
For data set [9] the following is noted: cited from earlier work. The source holds these as a separate data set.
The target in the next data set is T1, α-1 1A subtype (Homo sapiens, UniProt P35348).
T1 sequence (P35348 1-466): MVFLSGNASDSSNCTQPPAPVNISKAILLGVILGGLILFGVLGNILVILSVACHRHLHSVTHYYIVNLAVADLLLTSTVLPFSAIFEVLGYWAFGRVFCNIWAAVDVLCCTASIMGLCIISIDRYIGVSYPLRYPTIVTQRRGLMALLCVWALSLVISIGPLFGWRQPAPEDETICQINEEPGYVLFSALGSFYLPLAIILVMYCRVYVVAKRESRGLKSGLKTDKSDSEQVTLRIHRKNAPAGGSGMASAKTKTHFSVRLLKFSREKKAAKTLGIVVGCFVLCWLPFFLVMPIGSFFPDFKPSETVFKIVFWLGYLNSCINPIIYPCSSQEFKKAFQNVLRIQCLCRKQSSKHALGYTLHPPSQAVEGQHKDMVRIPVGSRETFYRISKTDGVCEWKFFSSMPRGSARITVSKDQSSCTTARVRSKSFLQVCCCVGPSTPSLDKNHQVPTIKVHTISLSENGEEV
Conditions: greater than Prazosin; cited from earlier work.

The conditions of data set [10]: subcutaneous injection of 10 mg; cited from earlier work.

“1 H,5 H-Tropan-3-ol (±)-tropate [Atropine]”: in [1] (adults), the “Dose that can produce a paradoxical bradycardia” value is given as “less than 0.5 mg”.
For the molecule `COc1cc2nc(N(C)CCCNC(=O)C3CCCO3)nc(N)c2cc1OC.Cl` (racemic) [ALFUZOSIN, (R,S)—N-[3-[(4-amino-6,7-dimethoxy-2-quinazolinyl)methylamino]propyl]tetrahydro-2-furancarboxamide hydrochloride], in data set [2] (human, in vivo), the Dizziness is on record as 6%, the Hypotension was 0.4% and the Syncope is reported as 0.2%. For the same molecule, in data set [3], the “Solubility in dichloromethane / methylene chloride” value is on record as “practically insoluble”, the “Solubility in ethanol / alcohol” value is reported as “sparingly soluble” and the Solubility in water result is listed as “freely soluble”.
Consider `COc1cc2nc(N3CCN(C(=O)C4CCCO4)CC3)nc(N)c2cc1OC` (racemic) [TERAZOSIN, (RS)-Piperazine, 1-(4-amino-6,7-dimethoxy-2-quinazolinyl)-4-[(tetra-hydro-2-furanyl)carbonyl]-, monohydrochloride, dihydrate], for which the Postural hypotension in [2] (trial of 600 subjects) is 4%. Also, the Syncope in [2] (trial subjects) is 0.6%. Besides, the “Half-life (in words)” value in data set [4] (in vivo) is recorded as “long half-life”. For the same molecule, in [3], the “Solubility in isotonic saline” value was “freely soluble” and the Solubility in water entry is “freely soluble”.
As to `Cl.Clc1cccc(Cl)c1NC1=NCCN1` [Clondine hydrochloride, 2-(2,6-dichlorophenylamino)-2-imidazoline hydrochloride], in [1] (oral), the “Maximum effective daily dose” value is given as 2.4 mg.
Consider `COc1cc2nc(N3CCN(C(=O)C4COc5ccccc5O4)CC3)nc(N)c2cc1OC` (centres unmarked) [DOXAZOSIN, 1-(4-amino-6,7-dimethoxy-2-quinazolinyl)-4-(1,4benzodioxan-2-ylcarbonyl) piperazine methanesulfonate], for which the “Half-life (in words)” value in data set [4] (in vivo) is on record as “long half-life”. Moreover, the Solubility in acetone result in data set [3] (acetone) is “very slightly soluble”. In addition, in data set [3], the “Solubility in dichloromethane / methylene chloride” value was “very slightly soluble”, the “Solubility in ethanol / alcohol” value is given as “slightly soluble” and the Solubility in water result was “slightly soluble”. In addition, the Solubility in dimethylformamide result in data set [3] (dimethylformamide) is “soluble”. Also, in data set [3] (dimethylsulfoxide), the Solubility in dimethylsulfoxide entry is “freely soluble”. In addition, the Solubility in methanol result in data set [3] (methanol) is reported as “slightly soluble”. For the same molecule, the Solubility in water in data set [3] (25° C.) is listed as 0.8%.
As to `CNC(C)C(O)c1ccccc1` (stereo not drawn) [Ephedrine, benzenemethanol α-[1-(methylamino)ethyl]-sulfate (2:1) (salt)], in [5] (exposure to light), the Light stability result is “darkens on exposure to light”.
Regarding `CCOC(=O)c1ncn2c1CN(C)C(=O)c1cc(F)ccc1-2` [Flumazenil, ethyl 8-fluoro-5,6-dihydro-5-methyl-6-oxo-4H-imidazo[1,5-a](1,4) benzodiazepine-3-carboxylate], the “octanol: buffer partition coefficient” value in [6] was 14 to 1. The “Solubility in acidic aqueous solutions” value in [3] (acidic aqueous solutions) was “slightly soluble”. The Solubility in water entry in data set [3] is listed as “insoluble”.
Turning to `C=CCN1CC[C@]23c4c5ccc(O)c4O[C@H]2C(=O)CC[C@@]3(O)[C@H]1C5.Cl` [Naloxone hydrochloride, 17-Allyl-4,5α-epoxy-3,14-dihydroxymorphinan-6-one hydrochloride], the Solubility in chloroform result in data set [3] (chloroform) is recorded as “practically insoluble”. In addition, the “Solubility in dilute acids” value in data set [3] (dilute acids) was “soluble”. For the same molecule, in data set [3], the “Solubility in ethanol / alcohol” value is reported as “slightly soluble” and the Solubility in water result was “soluble”. The Solubility in ether result in data set [3] (ether / ethyl ether) is listed as “practically insoluble”. For the same molecule, the “Solubility in strong alkali” value in data set [3] (strong alkali) is recorded as “soluble”.
In the case of `O=C1CC[C@@]2(O)[C@H]3Cc4ccc(O)c5c4[C@@]2(CCN3CC2CC2)[C@H]1O5` [Naltrexone base anhydrous, morphinan-6-one, 17 (cyclopropylmethyl) 4,5-epoxy3,14-dihydroxy-(5a)], in [3], the “Solubility in ethanol / alcohol” value was “soluble” and the Solubility in water result is on record as “insoluble”.
`CN1CCC[C@H]1c1cccnc1` [Nicotine]: the “Crossing of the blood brain barrier” value in data set [7] is reported as “crosses the blood-brain barrier”. For the same molecule, the “Time to reach the brain” value in data set [4] (after inhalation) is 10 to 20 s. Also, the Route of excretion result in [4] (in vivo) was “primarily excreted in urine”. Besides, in data set [3] (base form), the Miscibility with water result is “miscible with water in its base form between 60 °C and 210 °C”. The Vapor pressure in [8] is on record as 5.5 Pa.
With `COc1cc2nc(N3CCN(C(=O)c4ccco4)CC3)nc(N)c2cc1OC.Cl` [PRAZOSIN, 1-(4-amino-6,7-dimethoxy-2-quiazolinyl)-4-(2-furoyl) piperazine], the “Syncope and symptoms of hypotension, share of subjects” value in data set [2] (1 mg BID/TID up to 20 mg total QD) is 6-12%. The “Crossing of the blood brain barrier” value in data set [7] is on record as “ability to cross the blood brain barrier”. For the same molecule, in [3], the “Solubility in isotonic saline” value is “slightly soluble” and the Solubility in water result is reported as “slightly soluble”.
For the molecule `C[C@H](Cc1cc2c(c(C(N)=O)c1)N(CCCO)CC2)NCCOc1ccccc1OCC(F)(F)F` [SILODOSIN], in data set [2] (8 mg QD, study of 897 subjects), the “Dizziness and orthostatic hypotension” value was 3%; the “Syncope, subjects affected / subjects” value is recorded as 1/897. In [3], the “Solubility in ethanol / alcohol” value is “freely soluble” and the Solubility in water entry is “very slightly soluble”. In addition, in data set [3] (glacial acetic acid / acetic acid), the “Solubility in acetic acid” value is on record as “very soluble”.
On to `C[N+](C)(C)CCOC(=O)CCC(=O)OCC[N+](C)(C)C` [Succinylcholine], for which the “Storage stability of solutions” value in data set [5] (refrigeration) was “lose potency unless refrigerated”. In addition, in [9] (0.3-1.1 mg/kg), the “Persistence of maximum blockade” value is given as “about 2 minutes”, the “Time to recovery after maximum blockade” value was 4 to 6 min and the “Time until neuromuscular blockade develops” value is on record as “about 1 minute”. The “Onset of effect given intramuscularly” value in data set [9] (intramuscular, up to 3 to 4 mg/kg) was 2 to 3 min. The Bradycardia entry in [1] (human, in vivo) is “bradycardia is common in pediatric patients after an initial dose of 1.5 mg/kg”.
Take `CCOc1ccccc1OCCN[C@H](C)Cc1ccc(OC)c(S(N)(=O)=O)c1.Cl` [Tamsulosin hydrochloride, (−)-(R)-5-[2-[[2-(o-Ethoxyphenoxy)ethyl]amino]propyl]-2-methoxybenzenesulfon-amide, monohydrochloride]: at α-1 1A subtype, the “Binding affinity at the 1A subtype over other α-1 antagonists” value is recorded as 12-30 times. Moreover, the “Incidence of hypotension, syncope, vertigo” value in data set [2] (Dose 0.4-0.8 mg QD) was 0.2%-0.6%. The “Crossing of the blood brain barrier” value in data set [7] was “ability to cross the blood brain barrier”. For the same molecule, the “Half-life (in words)” value in data set [4] (in vivo) is given as “long half-life”.
Consider `CC[C@@H]1C(=O)OC[C@@H]1Cc1cncn1C` [pilocarpine HCl], for which the Salivation in data set [10] is 1 L.
As to `C=CC[N+]1([C@H]2C[C@H]3[C@@H]4CC[C@H]5C[C@H](O)[C@@H](N6CCOCC6)C[C@]5(C)[C@H]4CC[C@]3(C)[C@H]2OC(C)=O)CCCC1.[Br-]` [rocuronium bromide, 1-[17β-(acetyloxy)-3α-hydroxy-2β-(4-morpholinyl)-5α-androstan-16β-yl]-1-(2-propenyl)pyrroidinium bromide], in data set [9] (initial dose 0.6 mg/kg), the “Time in which most patients have intubation completed” value is at most 2 min; the “Time to maximum blockade in most patients” value is “less than 3 minutes”; the “Time to neuromuscular block sufficient for intubation (80% block or greater), median (range)” value is 1 (0.4-6) minute(s).
